# Test system: Staphylococcus aureus
# Test: Contact viability assay, 2 minutes exposure
# Assay type: cell-based
# Conditions: on its own
# Description: The assay was conducted in glass tubes and all test components were equilibrated at the teat temperature in a water bath before inoculation and during the suspension period (2 minutes). The inoculum is an 18 hour culture of Staphylococcus aureus grown in Brain Heart Infusion Broth. The reduction in CFU's are illustrated in FIG. 4. FIG. 7 illustrates the antimicrobial effect of emulsions of caprylic:oleic, capric:oleic and lauric:oleic with varying concentration in oleic acid. The emulsions were prepared by method 2 in Example 3.
structure (smiles),measurement,value
CCCCCCCC/C=C\CCCCCCCC(=O)O [oleic acid],antimicrobial effect,no significant antimicrobial effect

# — patent US20100317734A1, “FREE FATTY ACID BLENDS AND USE THEREOF” (priority 2007, published 2010)
